We go through two molecules from patent US12281123B2, “Benzoxazinone compounds as KLK5/7 dual inhibitors” (MOLECULAR SKIN THERAPEUTICS, INC., priority 2019, dated 2025).

Holding throughout (format): biochemical
One assay concerns the target T1, Recombinant human KLK5 (Homo sapiens, UniProt Q9Y337).
T1 construct: purchased SpeedBio (Gaithersburg, MD) / SpeedBioSystems; host or cells: HEK293
T1 sequence (Q9Y337 23-293): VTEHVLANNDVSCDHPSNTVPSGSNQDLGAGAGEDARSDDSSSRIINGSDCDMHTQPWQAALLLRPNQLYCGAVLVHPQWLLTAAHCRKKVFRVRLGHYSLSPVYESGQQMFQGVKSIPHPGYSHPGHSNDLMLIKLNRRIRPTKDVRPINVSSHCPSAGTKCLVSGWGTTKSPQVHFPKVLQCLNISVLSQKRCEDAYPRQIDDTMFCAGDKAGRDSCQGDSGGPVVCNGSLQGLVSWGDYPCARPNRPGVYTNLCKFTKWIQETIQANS
Nature of the assay: Recombinant KLK5 chromogenic IC50 assay. The source says: (§1) Human Kallikrein Proteins: Recombinant human KLK5 expressed in HEK293 was obtained from SpeedBio (Gaithersburg, MD). Recombinant proenzyme KLK-7 and recombinant proenzyme KLK-14 both expressed in mouse myeloma cells were from R&D Biosystems (Minneapolis, MN). Plasmin and thrombin were from Haematologic Technologies (Essex Junction, VT). Trypsin and Chymotrypsin were bought from Worthington Biochemical Corporation (Lakewood, NJ) and plasma kallikrein was from Prospec (East Brunswick, NJ). Neutrophil Elastase was obtained from Innovative Research (Peary Court, MI). Bovine recombinant enterokinase expressed in E. coli was bought from Sigma (St. Louis, MI). Matriptase expressed in E. coli was obtained from Enzo Life Sciences (Farmingdale, NY). The control inhibitors Nafamostat mesylate was from Sigma (St. Louis, MI) and (2-(2-fluorophenyl)-5,6,7,8-tetrahydro-4H-benzo[4,5]thieno[2,3-d][1,3]oxazin-4-one was from Interbioscreen (Moskow, Russia).
(§2) Substrates: S-2288 (D-Ile-Pro-Arg-pNA), CS-PSA (MeO-Suc-Arg-Pro-Tyr-pNA), S-2266 (H-D-Val-Leu-Arg-pNA) and S-2288 (H-D-Ile-Pro-Arg-pNA) were bought from Diapharma (West Chester, OH). MeOSuccAla-Ala-Pro-Val-pNA was purchased from Sigma (St Louis, MI). The substrates were dissolved in water at 10 mM and were frozen in aliquots at −20° C.
(§3) Assays: All assays were performed in 384 well polystyrene plates coated overnight with 0.1% Tween 20 at 4° C. The plates were then washed twice with 100 μL water and dried. For the determination of IC50 values, the inhibitors were diluted in serial dilutions of 1:3 intervals into pure DMSO at 50 fold of the intended final concentrations in the assays. Usually eight inhibitor dilutions and one DMSO control were prepared. The substrates were diluted into water at 2.2-fold the final concentration in the assay mixture. The wells of the plate were filled with 50 μL of the enzyme diluted in 2× assay buffer (100 mM Tris, 200 mM NaCl, 0.2% PEG, 0.01% Tween, 2 mM EDTA, pH 8.0) at twofold the intended concentration. Then 5 μL DMSO, 2.2 μL inhibitor and 45 μL substrate were added to start the reaction. The assays were monitored at 37° C. in a multi well plate reader at a wavelength of 405 nm (Molecular Devices, San Jose, CA) for 1 h. The tool inhibitor, nafamostat, was used as a control for trypsin, thrombin, KLK-5 and KLK-14 at 10 μM maximal concentration and (2-(2-fluorophenyl)-5,6,7,8-tetrahydro-4H-benzo[4,5]thieno[2,3-d][1,3]oxazin-4-one for KLK-7 at 5 μM.
The table summarizes assay conditions for the individual enzymes:
Data analysis: The progress curves of substrate hydrolysis were analyzed by linear regression of the final 20 min of the reaction. Fit of the dose response of the resulting rates to the following equation yielded the IC50:
[formula] with 1) c: the background rate at the highest inhibitor concentration; 2) d: the rate of the control reaction; 3) IC50: the IC50 of the inhibitor; 4) x: the inhibitor concentration; and 5) b: the slope.
Proteases: KLK5 (SpeedBioSystems); KLK7 (R&Dsystems) was activated with enterokinase (2 hours, 37° C.) prior to assay; Trypsin (Sigma Aldrich); Chymotrypsin (Sigma Aldrich); Factor Xa (Haematologic Technologies); Plasmin (Haematologic Technologies); KLK14 (R&Dsystems) was activated with enterokinase (1 hour, 37° C.) prior to assay; Thrombin (Haematologic Technologies); Neutrophil Elastase (Athens Research&Technology); and KLK1 (Prospec).

A further assay addresses T2, Factor Xa (Homo sapiens, UniProt P00742).
T2 construct: purchased Haematologic Technologies
The assay can be described thus: Chromogenic assay, Factor Xa. Particulars: Factor Xa 0.5 nM; S-2288 500 μM; highest conc. of 1.001 20 μM. The method, then:
as §3
Data analysis: The progress curves of substrate hydrolysis were analyzed by linear regression of the final 20 min of the reaction. Fit of the dose response of the resulting rates to the following equation yielded the IC50: […]

Another assay addresses T3, Trypsin (UniProt P00760).
T3 sequence (P00760 1-246): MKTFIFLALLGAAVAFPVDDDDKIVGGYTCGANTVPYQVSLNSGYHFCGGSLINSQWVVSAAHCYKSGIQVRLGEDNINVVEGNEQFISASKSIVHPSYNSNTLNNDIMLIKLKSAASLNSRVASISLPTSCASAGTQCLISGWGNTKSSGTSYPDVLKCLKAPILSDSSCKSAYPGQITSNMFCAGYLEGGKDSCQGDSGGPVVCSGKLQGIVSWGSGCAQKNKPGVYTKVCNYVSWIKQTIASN
Nature of the assay: Chromogenic assay, trypsin. Particulars: Trypsin 0.1 nM; S-2288 500 μM; highest conc. of 1.001 50 μM.
Description: as §1, with “Russia). […]” for “Russia).”
(§4) Assays: All assays were performed in 384 well polystyrene plates coated overnight with 0.1% Tween 20 at 4° C. […] The assays were monitored at 37° C. in a multi well plate reader at a wavelength of 405 nm (Molecular Devices, San Jose, CA) for 1 h. […]
(§5) Data analysis: The progress curves of substrate hydrolysis were analyzed by linear regression of the final 20 min of the reaction. […]

The next assay concerns the target T4, Thrombin (Homo sapiens, UniProt P00734).
T4 construct: purchased Haematologic Technologies (Essex Junction, VT)
Nature of the assay: Chromogenic assay, thrombin. As to conditions: Thrombin 0.5 nM; S-2288 500 μM; highest conc. of 1.001 100 μM.
Description: as §1, with “Russia). […]” for “Russia).”
as §4, §5

The target of another assay is T5, KLK14 (Homo sapiens, UniProt Q9P0G3).
T5 construct: purchased R&D Biosystems (Minneapolis, MN) / R&Dsystems; host or cells: mouse myeloma cells
T5 sequence (Q9P0G3 25-251): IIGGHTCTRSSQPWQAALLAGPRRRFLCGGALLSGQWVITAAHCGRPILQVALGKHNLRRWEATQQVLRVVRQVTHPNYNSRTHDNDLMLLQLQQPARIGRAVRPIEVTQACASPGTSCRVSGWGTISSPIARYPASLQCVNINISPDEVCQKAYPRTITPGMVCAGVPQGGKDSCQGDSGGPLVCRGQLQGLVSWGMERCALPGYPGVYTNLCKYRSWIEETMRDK
The assay can be described thus: Chromogenic assay, KLK14. As to conditions: S-2288 500 μM, highest conc. of 1.001 50 μM.
Description: as §1, §2
Activation of KLK-7 and KLK-14: 150 μL 8 μM solution of the proenzymes of KLK-7 or KLK-14 in 50 mM Tris, 10 mM CaCl2, 150 mM NaCl, 0.05% (w/v) Brij-35, pH 7.5 were mixed with 150 μL 10 μg/mL bovine enterokinase in the same buffer and incubated for 2 h for KLK-7 and 1 h for KLK-14 at 37° C. After the incubation period, activation was stopped by addition of 6 μL 0.5 M EDTA pH 8.0.
Assays: All assays were performed in 384 well polystyrene plates coated overnight with 0.1% Tween 20 at 4° C. The plates were then washed twice with 100 μL water and dried. […] The assays were monitored at 37° C. in a multi well plate reader at a wavelength of 405 nm (Molecular Devices, San Jose, CA) for 1 h. […]
as §5

Several values for one entry are separate records, joined by “and”; a condition that tells them apart may be missing. Equal entries are not always repeated. Where two headings read alike, the source gives them in different places.

T2 sequence (P00742 235-488 limits assumed): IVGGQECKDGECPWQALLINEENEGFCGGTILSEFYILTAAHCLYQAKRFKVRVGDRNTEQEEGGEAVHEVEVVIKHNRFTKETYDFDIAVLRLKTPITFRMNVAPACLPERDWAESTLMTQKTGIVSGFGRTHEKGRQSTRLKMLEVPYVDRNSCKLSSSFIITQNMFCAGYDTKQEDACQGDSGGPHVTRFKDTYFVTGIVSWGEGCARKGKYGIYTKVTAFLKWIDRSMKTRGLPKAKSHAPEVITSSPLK
T2 sequence (P00742 41-179 partner limits assumed): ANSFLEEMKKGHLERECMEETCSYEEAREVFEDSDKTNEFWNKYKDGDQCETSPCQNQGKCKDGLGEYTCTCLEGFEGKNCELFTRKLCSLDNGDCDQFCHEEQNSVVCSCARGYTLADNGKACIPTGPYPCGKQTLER

As to `CS(=O)(=O)c1cc(CO)ccc1-c1nc2cc3c(cc2c(=O)o1)OCCO3` [Compound 1.001, 2-(4-(Hydroxymethyl)-2-(methylsulfonyl)phenyl)-7,8-dihydro-4H-[1,4]dioxino[2′,3′:4,5]benzo[1,2-d][1,3]oxazin-4-one], the IC50 – broadly, the point on the concentration scale where inhibition reaches its midpoint – on Recombinant human KLK5 (Table 2, assay protocol of Example 3, read-out: Recombinant KLK5 enzyme (IC50)) is 0.21 µM; at Recombinant human KLK5 (Table 3, KLK5 10 nM, S-2288 500 μM, highest conc. of 1.001 10 μM, read-out: IC50 (μM), KLK5), 0.176 µM and 0.188 µM; at Factor Xa, 3.22 µM and 10.4 µM and 3.94 µM; against Trypsin, 1.66 µM and 1.36 µM and 2.2 µM; against Thrombin it was greater than 10 µM; against KLK14 (KLK14 1 nM), 0.442 µM. On KLK14 (KLK14 5 nM), this molecule came in with an IC50 of 0.633 µM. In addition, on Recombinant human KLK5 (conclusion from Table 3), the “Inhibition of KLK5, conclusion in words” value was “inhibitor”.

Turning to `CS(=O)(=O)c1cc(CO)ccc1C(=O)Nc1cc2c(cc1C(=O)O)OCCO2` [Compound 408, reference compound], the “IC50 (μM), KLK5” value on Recombinant human KLK5 (Table 3, KLK5 10 nM, S-2288 500 μM, highest conc. of 1.001 10 μM) was “No inhibition”. Besides, the “IC50 (μM), Factor Xa” value against Factor Xa was “No inhibition”. For the same molecule, the “IC50 (μM), Trypsin” value at Trypsin is “No inhibition”. The “IC50 (μM), Thrombin” value on Thrombin is listed as “No inhibition”. Also, the “IC50 (μM), KLK14” value against KLK14 (KLK14 5 nM) is listed as “No inhibition”.
